Measured values: the NIST ThermoML archive (doi:10.1021/je8008073)

Experiment: wn = mass fraction of the nth substance listed
Conditions: Liquid; for mass density: Vibrating tube method; for viscosity: Falling or rolling sphere viscometry

CC(C)Cc1ccccc1 [(2-methylpropyl)benzene] + c1ccc2c(c1)CCCC2
Conditions	mass density [kg/m3]	viscosity [mPa·s]
293.15 K, 100 kPa, w2 = 0.5	907.9	–
293.15 K, 2000 kPa, w2 = 0.5	909.1	–
293.15 K, 4000 kPa, w2 = 0.5	910.3	–
293.15 K, 6000 kPa, w2 = 0.5	911.6	–
293.15 K, 8000 kPa, w2 = 0.5	913	–
293.15 K, 10000 kPa, w2 = 0.5	914.3	–
293.15 K, 12000 kPa, w2 = 0.5	915.4	–
293.15 K, 14000 kPa, w2 = 0.5	916.6	–
293.15 K, 16000 kPa, w2 = 0.5	917.7	–
293.15 K, 18000 kPa, w2 = 0.5	918.8	–
293.15 K, 20000 kPa, w2 = 0.5	920.1	–
295.65 K, 100 kPa, w2 = 0.5	905.7	–
295.65 K, 2000 kPa, w2 = 0.5	906.8	–
295.65 K, 4000 kPa, w2 = 0.5	908.1	–
295.65 K, 6000 kPa, w2 = 0.5	909.3	–
295.65 K, 8000 kPa, w2 = 0.5	910.6	–
295.65 K, 10000 kPa, w2 = 0.5	911.9	–
295.65 K, 12000 kPa, w2 = 0.5	913.1	–
295.65 K, 14000 kPa, w2 = 0.5	914.3	–
295.65 K, 16000 kPa, w2 = 0.5	915.4	–
295.65 K, 18000 kPa, w2 = 0.5	916.6	–
295.65 K, 20000 kPa, w2 = 0.5	917.7	–
298.15 K, 100 kPa, w2 = 0.48	901.3	–
298.15 K, 100 kPa, w2 = 0.49	902.5	–
298.15 K, 100 kPa, w2 = 0.5	903.6	1.33
298.15 K, 100 kPa, w2 = 0.51	905	–
298.15 K, 100 kPa, w2 = 0.52	906	–
298.15 K, 2000 kPa, w2 = 0.48	902.6	–
298.15 K, 2000 kPa, w2 = 0.49	903.8	–
298.15 K, 2000 kPa, w2 = 0.5	904.7	–
298.15 K, 2000 kPa, w2 = 0.51	906.2	–
298.15 K, 2000 kPa, w2 = 0.52	907.3	–
298.15 K, 4000 kPa, w2 = 0.48	904	–
298.15 K, 4000 kPa, w2 = 0.49	905.1	–
298.15 K, 4000 kPa, w2 = 0.5	906.1	1.37
298.15 K, 4000 kPa, w2 = 0.51	907.6	–
298.15 K, 4000 kPa, w2 = 0.52	908.8	–
298.15 K, 6000 kPa, w2 = 0.48	905.3	–
298.15 K, 6000 kPa, w2 = 0.49	906.4	–
298.15 K, 6000 kPa, w2 = 0.5	907.5	–
298.15 K, 6000 kPa, w2 = 0.51	908.8	–
298.15 K, 6000 kPa, w2 = 0.52	910	–
298.15 K, 8000 kPa, w2 = 0.48	906.6	–
298.15 K, 8000 kPa, w2 = 0.49	907.7	–
298.15 K, 8000 kPa, w2 = 0.5	908.8	–
298.15 K, 8000 kPa, w2 = 0.51	910.1	–
298.15 K, 8000 kPa, w2 = 0.52	911.2	–
298.15 K, 10000 kPa, w2 = 0.48	907.8	–
298.15 K, 10000 kPa, w2 = 0.49	909	–
298.15 K, 10000 kPa, w2 = 0.5	910.1	1.43
298.15 K, 10000 kPa, w2 = 0.51	911.2	–
298.15 K, 10000 kPa, w2 = 0.52	912.4	–
298.15 K, 12000 kPa, w2 = 0.48	909	–
298.15 K, 12000 kPa, w2 = 0.49	910.2	–
298.15 K, 12000 kPa, w2 = 0.5	911.3	–
298.15 K, 12000 kPa, w2 = 0.51	912.5	–
298.15 K, 12000 kPa, w2 = 0.52	913.6	–
298.15 K, 14000 kPa, w2 = 0.48	910.2	–
298.15 K, 14000 kPa, w2 = 0.49	911.5	–
298.15 K, 14000 kPa, w2 = 0.5	912.5	–
298.15 K, 14000 kPa, w2 = 0.51	913.7	–
298.15 K, 14000 kPa, w2 = 0.52	914.8	–
298.15 K, 16000 kPa, w2 = 0.48	911.4	–
298.15 K, 16000 kPa, w2 = 0.49	912.6	–
298.15 K, 16000 kPa, w2 = 0.5	913.7	–
298.15 K, 16000 kPa, w2 = 0.51	915	–
298.15 K, 16000 kPa, w2 = 0.52	916	–
298.15 K, 18000 kPa, w2 = 0.48	912.6	–
298.15 K, 18000 kPa, w2 = 0.49	913.7	–
298.15 K, 18000 kPa, w2 = 0.5	914.9	–
298.15 K, 18000 kPa, w2 = 0.51	916.1	–
298.15 K, 18000 kPa, w2 = 0.52	917.1	–
298.15 K, 20000 kPa, w2 = 0.48	913.8	–
298.15 K, 20000 kPa, w2 = 0.49	914.9	–
298.15 K, 20000 kPa, w2 = 0.5	916.1	–
298.15 K, 20000 kPa, w2 = 0.51	917.2	–
298.15 K, 20000 kPa, w2 = 0.52	918.2	–
300.65 K, 100 kPa, w2 = 0.5	901.5	–
300.65 K, 2000 kPa, w2 = 0.5	902.9	–
300.65 K, 4000 kPa, w2 = 0.5	904.2	–
300.65 K, 6000 kPa, w2 = 0.5	905.4	–
300.65 K, 8000 kPa, w2 = 0.5	906.8	–
300.65 K, 10000 kPa, w2 = 0.5	908	–
300.65 K, 12000 kPa, w2 = 0.5	909.2	–
300.65 K, 14000 kPa, w2 = 0.5	910.4	–
300.65 K, 16000 kPa, w2 = 0.5	911.6	–
300.65 K, 18000 kPa, w2 = 0.5	912.8	–
300.65 K, 20000 kPa, w2 = 0.5	914	–
303.15 K, 100 kPa, w2 = 0.5	900	–
303.15 K, 2000 kPa, w2 = 0.5	901.3	–
303.15 K, 4000 kPa, w2 = 0.5	902.6	–
303.15 K, 6000 kPa, w2 = 0.5	904	–
303.15 K, 8000 kPa, w2 = 0.5	905.3	–
303.15 K, 10000 kPa, w2 = 0.5	906.5	–
303.15 K, 12000 kPa, w2 = 0.5	907.8	–
303.15 K, 14000 kPa, w2 = 0.5	909	–
303.15 K, 16000 kPa, w2 = 0.5	910.3	–
303.15 K, 18000 kPa, w2 = 0.5	911.4	–
303.15 K, 20000 kPa, w2 = 0.5	912.6	–
